The subject of one series is P-gp KO A549/DOX cells. Briefly: intracellular accumulation of doxorubicin in P-gp KO A549/DOX cells. The class given is cell-based, human. To be noted: 24 h with 5 μM doxorubicin, compound at 1 and 3 μM. The procedure:
(§1) A 50 μL aliquot was sonicated and used for the measurement of the protein content. […] Fluorescence was converted in nmol/mg cell proteins using a calibration curve previously set.

The target in another series is hCA IX (Homo sapiens, UniProt Q16790). Nature of the series: stopped-flow CO2 hydrase assay, hCA IX. To be noted: read-out: Ki hCA IX; stopped-flow technique, mean from three different assays.
The next series addresses T1, P-gp (Homo sapiens, UniProt P08183).
T1 construct: expressed in transfected cells; host or cells: MDCK-MDR1 (Madin-Darby Canine Kidney, transfected; gift from Prof; P. Borst, NKI-AVL)
Nature of the series: calcein-AM transport inhibition in MDCK-MDR1 cells. The class given is cell-based. As to conditions: mean ± SEM. The procedure:
(§2) The inhibiting activity of the two compounds on P-gp and MRP1 was evaluated by measuring the transport inhibition of the profluorescent probe calcein-AM (P-gp and MRP1 substrate) in MDCK-MDR1 and MDCK-MRP1 cells (P-gp- and MRP1-overexpressing cells, respectively). The activity on BCRP was instead evaluated using the fluorescent probe Hoechst 33342 (BCRP substrate) in MDCK-BCRP cells (BCRP-overexpressing cells).[43]
(§3) MDCK-MDR1, MDCK-MRP1, and MDCK-BCRP cells are a gift from Prof. P. Borst, NKI-AVL Institute, Amsterdam, The Netherlands. Cells were grown in Dulbecco’s modified Eagle’s medium (DMEM) high glucose supplemented with 10% fetal bovine serum, 2 mM glutamine, 100 U/mL of penicillin, and 100 μg/mL of streptomycin in a humidified incubator at 37 °C with a 5% CO2 atmosphere. Cell culture reagents were purchased from Celbio s.r.l. (Milano, Italy). CulturePlate 96/wells plates were purchased from PerkinElmer Life Science (Waltham, MA) and Falcon (BD Biosciences, Bedford, MA). Calcein-AM and Hoechst 33342 (bisbenzimide H 33342 trihydrochloride) were obtained from Sigma-Aldrich (Milan, Italy). The other reagents were purchased from Sigma Merck Millipore.

A further series has as its target T2, MRP1 (Homo sapiens, UniProt P33527).
T2 construct: expressed in transfected cells; host or cells: MDCK-MRP1 (Madin-Darby Canine Kidney, transfected; gift from Prof; P. Borst, NKI-AVL)
Nature of the series: calcein-AM transport inhibition in MDCK-MRP1 cells. The series is classed as cell-based. To be noted: NA, not active. The procedure: as §2, §3

Another series concerns the target T3, BCRP (Homo sapiens, UniProt Q9UNQ0).
T3 construct: expressed in transfected cells; host or cells: MDCK-BCRP (Madin-Darby Canine Kidney, transfected; gift from Prof; P. Borst, NKI-AVL)
T3 sequence (Q9UNQ0 1-655): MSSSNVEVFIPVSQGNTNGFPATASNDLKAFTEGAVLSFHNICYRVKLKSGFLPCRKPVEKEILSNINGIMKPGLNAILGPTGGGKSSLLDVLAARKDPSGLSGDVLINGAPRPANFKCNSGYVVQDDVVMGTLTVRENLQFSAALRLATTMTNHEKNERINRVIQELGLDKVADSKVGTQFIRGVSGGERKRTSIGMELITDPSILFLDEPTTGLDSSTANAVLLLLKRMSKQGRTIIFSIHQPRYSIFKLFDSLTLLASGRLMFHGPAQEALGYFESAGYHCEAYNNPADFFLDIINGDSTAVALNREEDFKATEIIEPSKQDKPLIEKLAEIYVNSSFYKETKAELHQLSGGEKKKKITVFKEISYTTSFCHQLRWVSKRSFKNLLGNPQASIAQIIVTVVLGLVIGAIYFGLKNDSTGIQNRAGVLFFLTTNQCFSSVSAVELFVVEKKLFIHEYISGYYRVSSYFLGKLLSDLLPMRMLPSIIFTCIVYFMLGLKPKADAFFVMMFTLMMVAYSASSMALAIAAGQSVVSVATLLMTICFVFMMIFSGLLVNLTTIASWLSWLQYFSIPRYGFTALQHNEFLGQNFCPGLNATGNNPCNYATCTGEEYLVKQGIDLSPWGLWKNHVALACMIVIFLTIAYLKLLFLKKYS
Briefly: Hoechst 33342 transport inhibition in MDCK-BCRP cells. The series is classed as cell-based. As to conditions: NA, not active. The procedure: as §2, §3

A further series has as its system P-gp KO HT29/DOX cells. Nature of the series: intracellular accumulation of doxorubicin in P-gp KO HT29/DOX cells. The series is classed as cell-based, human. As to conditions: 24 h with 5 μM doxorubicin, compound at 1 and 3 μM. The procedure:
as §1

The subject of a further series is HT29/DOX cells. Nature of the series: intracellular accumulation of doxorubicin in HT29/DOX cells. The class given is cell-based, human. As to conditions: 24 h with 5 μM doxorubicin, compound at 1 and 3 μM, dose-dependent. How it is done: as §1
Another series relates to A549/DOX cells. Briefly: intracellular accumulation of doxorubicin in A549/DOX cells. The series is classed as cell-based, human. To be noted: 24 h with 5 μM doxorubicin, compound at 1 and 3 μM, dose-dependent. How it is done: as §1
In a further series the target is hCA I (Homo sapiens, UniProt P00915). Nature of the series: stopped-flow CO2 hydrase assay, hCA I. As to conditions: read-out: Ki hCA I; stopped-flow technique, mean from three different assays.
Sequence of hCA I (P00915 whole entry): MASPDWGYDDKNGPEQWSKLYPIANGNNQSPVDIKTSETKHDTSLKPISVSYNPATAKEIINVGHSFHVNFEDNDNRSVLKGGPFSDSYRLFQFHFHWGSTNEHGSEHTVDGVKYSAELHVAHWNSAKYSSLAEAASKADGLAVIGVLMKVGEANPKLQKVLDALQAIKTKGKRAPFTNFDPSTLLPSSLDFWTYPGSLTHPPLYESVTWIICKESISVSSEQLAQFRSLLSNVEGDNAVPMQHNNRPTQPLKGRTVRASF
For the next series, the target named is hCA II (Homo sapiens, UniProt P00918). Nature of the series: stopped-flow CO2 hydrase assay, hCA II. As to conditions: read-out: Ki hCA II; stopped-flow technique, mean from three different assays.

Where a name gives a salt, the structure may show the parent alone.

As a reminder, the melting point is the temperature of the solid-liquid transition. As usually defined, the Ki is a measure of affinity in units of concentration, obtained from inhibition or displacement. As a reminder, the EC50 is the concentration at which the effect is half-maximal.

T1 sequence (P08183 whole entry): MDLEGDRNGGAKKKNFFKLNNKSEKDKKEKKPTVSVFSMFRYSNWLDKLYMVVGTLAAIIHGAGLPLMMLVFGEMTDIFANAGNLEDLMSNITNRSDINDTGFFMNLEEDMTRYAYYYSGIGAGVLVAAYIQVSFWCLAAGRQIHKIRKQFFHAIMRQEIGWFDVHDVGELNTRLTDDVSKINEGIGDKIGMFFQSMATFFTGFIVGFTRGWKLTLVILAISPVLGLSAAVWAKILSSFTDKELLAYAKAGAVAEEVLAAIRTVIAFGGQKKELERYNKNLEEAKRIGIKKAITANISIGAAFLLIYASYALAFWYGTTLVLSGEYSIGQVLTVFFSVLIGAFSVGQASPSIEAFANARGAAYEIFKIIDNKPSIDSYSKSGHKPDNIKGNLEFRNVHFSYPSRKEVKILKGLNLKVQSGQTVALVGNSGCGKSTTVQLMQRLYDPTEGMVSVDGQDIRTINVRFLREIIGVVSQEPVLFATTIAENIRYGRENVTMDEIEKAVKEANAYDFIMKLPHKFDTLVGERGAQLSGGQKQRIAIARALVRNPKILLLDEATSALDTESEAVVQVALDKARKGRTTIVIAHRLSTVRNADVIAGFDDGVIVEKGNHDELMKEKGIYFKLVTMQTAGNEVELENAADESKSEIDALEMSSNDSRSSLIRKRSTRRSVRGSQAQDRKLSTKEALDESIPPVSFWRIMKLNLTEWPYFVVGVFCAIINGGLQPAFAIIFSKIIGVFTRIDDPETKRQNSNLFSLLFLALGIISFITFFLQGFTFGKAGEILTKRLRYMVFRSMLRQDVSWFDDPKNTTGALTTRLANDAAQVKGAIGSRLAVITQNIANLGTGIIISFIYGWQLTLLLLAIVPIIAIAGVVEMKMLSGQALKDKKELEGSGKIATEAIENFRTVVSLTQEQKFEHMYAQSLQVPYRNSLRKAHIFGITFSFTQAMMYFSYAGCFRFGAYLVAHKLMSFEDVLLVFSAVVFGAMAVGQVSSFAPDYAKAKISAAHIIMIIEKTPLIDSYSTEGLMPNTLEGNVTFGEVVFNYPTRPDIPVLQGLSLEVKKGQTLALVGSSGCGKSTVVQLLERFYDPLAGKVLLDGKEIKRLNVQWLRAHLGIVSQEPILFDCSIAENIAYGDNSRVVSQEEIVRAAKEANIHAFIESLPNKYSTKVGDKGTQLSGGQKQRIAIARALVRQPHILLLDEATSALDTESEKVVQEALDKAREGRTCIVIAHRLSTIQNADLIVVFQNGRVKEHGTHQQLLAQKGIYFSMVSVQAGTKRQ
T2 sequence (P33527 whole entry): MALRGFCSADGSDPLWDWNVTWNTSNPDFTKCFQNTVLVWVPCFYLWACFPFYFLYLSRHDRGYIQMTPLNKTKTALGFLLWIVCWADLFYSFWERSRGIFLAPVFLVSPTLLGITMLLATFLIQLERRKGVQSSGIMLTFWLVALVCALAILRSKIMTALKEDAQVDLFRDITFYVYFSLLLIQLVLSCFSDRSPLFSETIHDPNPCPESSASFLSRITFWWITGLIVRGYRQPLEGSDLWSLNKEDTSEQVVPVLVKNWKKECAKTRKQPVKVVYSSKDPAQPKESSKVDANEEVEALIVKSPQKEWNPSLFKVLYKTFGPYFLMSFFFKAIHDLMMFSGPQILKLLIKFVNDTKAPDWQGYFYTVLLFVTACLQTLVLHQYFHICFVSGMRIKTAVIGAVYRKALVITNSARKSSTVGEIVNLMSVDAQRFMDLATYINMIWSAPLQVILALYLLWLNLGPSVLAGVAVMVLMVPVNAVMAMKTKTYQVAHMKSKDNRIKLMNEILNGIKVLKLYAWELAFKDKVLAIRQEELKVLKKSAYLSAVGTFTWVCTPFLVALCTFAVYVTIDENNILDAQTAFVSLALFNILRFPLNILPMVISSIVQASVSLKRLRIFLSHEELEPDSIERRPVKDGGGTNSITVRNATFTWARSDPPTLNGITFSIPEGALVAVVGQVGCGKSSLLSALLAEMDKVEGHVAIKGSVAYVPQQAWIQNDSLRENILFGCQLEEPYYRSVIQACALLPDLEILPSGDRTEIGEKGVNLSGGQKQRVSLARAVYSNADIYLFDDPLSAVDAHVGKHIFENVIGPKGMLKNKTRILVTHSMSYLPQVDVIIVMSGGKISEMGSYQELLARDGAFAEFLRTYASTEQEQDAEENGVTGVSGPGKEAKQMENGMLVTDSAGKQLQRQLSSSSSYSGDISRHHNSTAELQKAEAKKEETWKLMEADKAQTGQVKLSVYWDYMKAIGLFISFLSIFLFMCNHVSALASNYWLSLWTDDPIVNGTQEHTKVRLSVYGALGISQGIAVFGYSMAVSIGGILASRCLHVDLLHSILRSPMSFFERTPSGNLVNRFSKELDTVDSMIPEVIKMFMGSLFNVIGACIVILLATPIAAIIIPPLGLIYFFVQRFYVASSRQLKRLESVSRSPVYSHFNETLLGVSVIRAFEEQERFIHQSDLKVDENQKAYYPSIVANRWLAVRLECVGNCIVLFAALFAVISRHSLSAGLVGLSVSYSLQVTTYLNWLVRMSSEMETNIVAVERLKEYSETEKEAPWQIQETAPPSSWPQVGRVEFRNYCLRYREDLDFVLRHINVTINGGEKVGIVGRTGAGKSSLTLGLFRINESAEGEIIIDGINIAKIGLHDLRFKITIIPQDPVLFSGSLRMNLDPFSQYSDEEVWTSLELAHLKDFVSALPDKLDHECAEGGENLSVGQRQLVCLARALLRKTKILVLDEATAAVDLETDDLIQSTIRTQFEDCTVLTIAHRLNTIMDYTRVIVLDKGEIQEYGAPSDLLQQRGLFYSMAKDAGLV
Source text for hCA II: (§4) An SX.18MV-R Applied Photophysics (Oxford, U.K.) stopped-flow instrument has been used to assay the catalytic/inhibition of various CA isozymes.[38] […] The inhibition constants were obtained by nonlinear least-squares methods using the Cheng–Prusoff equation, as reported earlier,[32] and represent the mean from at least three different determinations.
Source text for hCA IX: as §4

`COc1cc(/C=C/C(=O)OCCCCCCCN(CCCOC(=O)/C=C/c2cc(OC)c(OC)c(OC)c2)CCCOc2ccc3ccc(=O)oc3c2)cc(OC)c1OC` (as salt: hydrochloride) [Compound 19, (E)-7-((3-((2-Oxo-2H-chromen-7-yl)oxy)propyl)(3-(((E)-3-(3,4,5-trimethoxyphenyl)acryloyl)oxy)propyl)amino)heptyl 3-(3,4,5-Trimethoxyphenyl)acrylate] returned a melting point of 90 to 92 °C.
`COc1cc(C(=O)OCCCN(CCCCCOC(=O)c2c3ccccc3cc3ccccc23)CCCOc2ccc3ccc(=O)oc3c2)cc(OC)c1OC` (as salt: hydrochloride) [Compound 8, 5-((3-((2-Oxo-2H-chromen-7-yl)oxy)propyl)(3-((3,4,5-trimethoxybenzoyl)oxy)propyl)amino)pentyl Anthracene-9-carboxylate] yielded a melting point of 120 to 123 °C.
Same read-out and setting: in the case of `COc1cc(C(=O)OCCCCCN(CCCOC(=O)c2cc(OC)c(OC)c(OC)c2)CCCOc2ccc3ccc(=O)oc3c2)cc(OC)c1OC` (as salt: hydrochloride) [Compound 5, 5-((3-((2-Oxo-2H-chromen-7-yl)oxy)propyl)(3-((3,4,5-trimethoxybenzoyl)oxy)propyl)amino)pentyl 3,4,5-Trimethoxybenzoate] it was 84 to 87 °C; in that of `COc1cc(/C=C/C(=O)OCCCCCN(CCCOC(=O)c2c3ccccc3cc3ccccc23)CCCOc2ccc3ccc(=O)oc3c2)cc(OC)c1OC` (as salt: hydrochloride) [Compound 3, (E)-3-((3-((2-Oxo-2H-chromen-7-yl)oxy)propyl)(5-((3-(3,4,5-trimethoxyphenyl)acryloyl)oxy)pentyl)amino)propyl Anthracene-9-carboxylate], 94 to 97 °C.
For the compound `COc1cc(/C=C/C(=O)OCCCN(CCCCCCCOC(=O)c2cc(OC)c(OC)c(OC)c2)CCCOc2ccc3ccc(=O)oc3c2)cc(OC)c1OC` (as salt: hydrochloride) [Compound 22, (E)-7-((3-((2-Oxo-2H-chromen-7-yl)oxy)propyl)(3-((3-(3,4,5-trimethoxyphenyl)acryloyl)oxy)propyl)amino)heptyl 3,4,5-Trimethoxybenzoate], the melting point fell in the range of 73 to 76 °C.
`COc1cc(C(=O)OCCCCCN(CCCOC(=O)c2cc(OC)c(OC)c(OC)c2)CCCOc2ccc3ccc(=O)oc3c2)cc(OC)c1OC` [Compound 5, 5-((3-((2-Oxo-2H-chromen-7-yl)oxy)propyl)(3-((3,4,5-trimethoxybenzoyl)oxy)propyl)amino)pentyl 3,4,5-Trimethoxybenzoate]: the “intracellular retention of doxorubicin” value with P-gp KO A549/DOX cells was “did not significantly increase”; in the series with P-gp KO HT29/DOX cells, “did not significantly increase”; in the series on HT29/DOX cells it was “increased”; in the series on A549/DOX cells, “increased”. The Ki on hCA IX was 40.7 nM; on hCA I, more than 10 µM; at hCA II, more than 10 µM. Besides, at P-gp, the EC50 is 150 ± 20 nM. For the same compound, the “EC50 MRP1” value on MRP1 is “completely inactive”. Also, the “EC50 BCRP” value at BCRP was “completely inactive”.
The compound `O=C(OCCCCCCCN(CCCOC(=O)c1c2ccccc2cc2ccccc12)CCCOc1ccc2ccc(=O)oc2c1)c1c2ccccc2cc2ccccc12` (as salt: hydrochloride) [Compound 27, 3-((7-((Anthracene-9-carbonyl)oxy)heptyl)(3-((2-oxo-2H-chromen-7-yl)oxy)propyl)amino)propyl Anthracene-9-carboxylate] yielded a melting point of 117 to 119 °C.
In the case of `COc1cc(C(=O)OCCCCCCN(CCCOC(=O)c2c3ccccc3cc3ccccc23)CCCOc2ccc3ccc(=O)oc3c2)cc(OC)c1OC` (as salt: hydrochloride) [Compound 15, 3-((3-((2-Oxo-2H-chromen-7-yl)oxy)propyl)(6-((3,4,5-trimethoxybenzoyl)oxy)hexyl)amino)propyl Anthracene-9-carboxylate], the melting point was in the range of 148 to 151 °C.
For the compound `COc1cc(/C=C/C(=O)OCCCN(CCCCCOC(=O)c2c3ccccc3cc3ccccc23)CCCOc2ccc3ccc(=O)oc3c2)cc(OC)c1OC` (as salt: hydrochloride) [Compound 7, (E)-5-((3-((2-Oxo-2H-chromen-7-yl)oxy)propyl)(3-((3-(3,4,5-trimethoxyphenyl)acryloyl)oxy)propyl)amino)pentyl Anthracene-9-carboxylate], the melting point lay within 92 to 95 °C.
Same read-out and setting: in the case of `COc1cc(/C=C/C(=O)OCCCN(CCCCCCOC(=O)c2cc(OC)c(OC)c(OC)c2)CCCOc2ccc3ccc(=O)oc3c2)cc(OC)c1OC` (as salt: hydrochloride) [Compound 13, (E)-6-((3-((2-Oxo-2H-chromen-7-yl)oxy)propyl)(3-((3-(3,4,5-trimethoxyphenyl)acryloyl)oxy)propyl)amino)hexyl 3,4,5-Trimethoxybenzoate] it was 78 to 81 °C; in that of `COc1cc(/C=C/C(=O)OCCCCCCCN(CCCOC(=O)c2c3ccccc3cc3ccccc23)CCCOc2ccc3ccc(=O)oc3c2)cc(OC)c1OC` (as salt: hydrochloride) [Compound 21, (E)-3-((3-((2-Oxo-2H-chromen-7-yl)oxy)propyl)(7-((3-(3,4,5-trimethoxyphenyl)acryloyl)oxy)heptyl)amino)propyl Anthracene-9-carboxylate], 100 to 102 °C.
As for `COc1cc(C(=O)OCCCCCN(CCCOC(=O)c2c3ccccc3cc3ccccc23)CCCOc2ccc3ccc(=O)oc3c2)cc(OC)c1OC` (as salt: hydrochloride) [Compound 6, 3-((3-((2-Oxo-2H-chromen-7-yl)oxy)propyl)(5-((3,4,5-trimethoxybenzoyl)oxy)pentyl)amino)propyl Anthracene-9-carboxylate], the melting point was 114 to 117 °C.
As for `COc1cc(/C=C/C(=O)OCCCN(CCCCCOC(=O)c2cc(OC)c(OC)c(OC)c2)CCCOc2ccc3ccc(=O)oc3c2)cc(OC)c1OC` (as salt: hydrochloride) [Compound 4, (E)-5-((3-((2-Oxo-2H-chromen-7-yl)oxy)propyl)(3-((3-(3,4,5-trimethoxyphenyl)acryloyl)oxy)propyl)amino)pentyl 3,4,5-Trimethoxybenzoate], the melting point was 74 to 77 °C.
On the same count and under the same terms, the figure for `COc1cc(C(=O)OCCCCCCCN(CCCOC(=O)c2c3ccccc3cc3ccccc23)CCCOc2ccc3ccc(=O)oc3c2)cc(OC)c1OC` (as salt: hydrochloride) [Compound 24, 3-((3-((2-Oxo-2H-chromen-7-yl)oxy)propyl)(7-((3,4,5-trimethoxybenzoyl)oxy)heptyl)amino)propyl Anthracene-9-carboxylate] is 75 to 77 °C; for `COc1cc(C(=O)OCCCCCCCN(CCCOC(=O)c2cc(OC)c(OC)c(OC)c2)CCCOc2ccc3ccc(=O)oc3c2)cc(OC)c1OC` (as salt: hydrochloride) [Compound 23, 7-((3-((2-Oxo-2H-chromen-7-yl)oxy)propyl)(3-((3,4,5-trimethoxybenzoyl)oxy)propyl)amino)heptyl 3,4,5-Trimethoxybenzoate] it is 74 to 77 °C.

Values taken from paper PMC9661477, “New Dual P-Glycoprotein (P-gp) and Human Carbonic Anhydrase XII (hCA XII) Inhibitors as Multidrug Resistance (MDR) Reversers in Cancer Cells” (Journal of Medicinal Chemistry, 2022).
